The values below are quoted from earlier work in Sander's compilation of Henry's law constants (doi:10.1021/es8005783).

This data set is described as follows: Henry solubility constant Hcp at 298.15 K (mol/(m3 Pa)). The conditions noted are these: reference: Hilal et al. (2008); cited value.
As to `FC(F)(F)C(F)(Cl)Cl` [1,1-dichlorotetrafluoroethane], the “Henry solubility constant Hcp” value is 7.5e-06.
Take `CCc1ccccc1CC` [1,2-diethylbenzene]: the “Henry solubility constant Hcp” value is 0.0012.
With `ClC=CCCl` [1,3-dichloropropene], the “Henry solubility constant Hcp” value is 0.0058.
As to `CCc1cccc(CC)c1` [1,3-diethylbenzene], the “Henry solubility constant Hcp” value was 0.0038.
Take `C1=CCC=CC1` [1,4-cyclohexadiene]: the “Henry solubility constant Hcp” value is 0.001.
`COCC(C)O` (stereo not drawn) [1-methoxy-2-propanol]: the “Henry solubility constant Hcp” value is 11.
Consider `CCC(C)N` (stereo not drawn) [2-butanamine], for which the “Henry solubility constant Hcp” value is 0.065.
`CC(C)CN` [2-methyl-1-propanamine]: the “Henry solubility constant Hcp” value was 0.72.
In the case of `C=C(C)C(=O)OCC` [2-methyl-2-propenoic acid, ethyl ester], the “Henry solubility constant Hcp” value is 0.016.
`CCCC(C)C` [2-methylpentane]: the “Henry solubility constant Hcp” value was 6.2e-06.
In the case of `CC(C)N` [2-propanamine], the “Henry solubility constant Hcp” value is 0.22.
With `CCCN(CCC)CCC` [N,N-dipropyl-1-propanamine], the “Henry solubility constant Hcp” value is 0.026.
As to `ClC1=C(Cl)[C@]2(Cl)[C@H]3[C@H]([C@@H]4C=C[C@H]3C4)[C@@]1(Cl)C2(Cl)Cl` [aldrin], the “Henry solubility constant Hcp” value was 0.02.
For `Cc1c(COC(=O)[C@@H]2[C@H](/C=C(\Cl)C(F)(F)F)C2(C)C)cccc1-c1ccccc1` [bifenthrin], the “Henry solubility constant Hcp” value was 9.9.
In the case of `ClC(Cl)Br` [bromodichloromethane], the “Henry solubility constant Hcp” value is 0.0077.
Consider `FC(F)(F)Cl` [chlorotrifluoromethane], for which the “Henry solubility constant Hcp” value is 7.2e-06.
As to `FC(F)(Cl)Cl` [dichlorodifluoromethane], the “Henry solubility constant Hcp” value was 3.6e-05.
On to `ClC1=C(Cl)[C@]2(Cl)[C@@H]3[C@@H]4C[C@@H]([C@H]5O[C@@H]45)[C@@H]3[C@@]1(Cl)C2(Cl)Cl` [dieldrin], for which the “Henry solubility constant Hcp” value is 0.17.
`ClC1=C(Cl)C2(Cl)C3C4OC4C(Cl)C3C1(Cl)C2(Cl)Cl` (stereo not drawn) [heptachlorepoxide]: the “Henry solubility constant Hcp” value was 0.54.
Regarding `ClC(Cl)=C(Cl)C(Cl)=C(Cl)Cl` [hexachlorobutadiene], the “Henry solubility constant Hcp” value is 0.00097.
For the molecule `O=[N+]([O-])c1ccccc1` [nitrobenzene], the “Henry solubility constant Hcp” value was 0.42.
Consider `CCCCCCCCC(=O)O` [nonanoic acid], for which the “Henry solubility constant Hcp” value was 6.9.
Regarding `BrC(Br)(Br)Br` [tetrabromomethane], the “Henry solubility constant Hcp” value was 0.02.
